Results published in publication PMC11052071, “Novel JAK Inhibitors to Reduce Graft-Versus-Host Disease after Allogeneic Hematopoietic Cell Transplantation in a Preclinical Mouse Model” (Molecules, 2024).

What was measured:
JAK2 = JAK2 (Homo sapiens, UniProt O60674); assay: Z'-LYTE enzyme activity assay (SelectScreen Kinase Profiling), JAK2
[1] = Mouse PK after subcutaneous injection; assay type: in vivo; conditions: 2 mg/kg s.c., CD-1 mice, time points up to 6 h; WU derivatives compared to BARI
[2] = tested on: phosphorylation of STAT1, STAT3, and STAT5; assay: STAT phosphorylation in primary human T cells (Western blotting); assay type: cell-based; conditions: starvation 1 h, stimulated with 10 ng/mL IFN-α
Excerpt: Subsequently, we examined the ability of WU4 and WU8 to inhibit JAK signaling by measuring the levels of phosphorylation of STATs, downstream transcription factors of JAK signaling. […] This inhibitory capacity of WU4 and WU8 correlates with their IC50 values (Figure 1J) and the ability to reduce CXCR3 expression (Figure 3). We then decided to further investigate WU4 and WU8 as potent novel JAK inhibitors for the prevention of GvHD in our preclinical mouse model of allo-HCT.
Figure 4 Effect of WU4 and WU8 on the inhibition of JAK signaling in primary human T cells. STAT phosphorylation was determined as the indicator of JAK signaling. Primary human T cells were obtained from the peripheral blood of healthy donors. […] The phosphorylation of STATs was measured by Western blotting. Total […] and GAPDH served as loading controls.

JAK1 = JAK1 (Homo sapiens, UniProt P23458); assay: Z'-LYTE enzyme activity assay (SelectScreen Kinase Profiling), JAK1
CXCR3 = CXCR3 expression in activated primary murine T cells (flow cytometry); assay type: cell-based, B6 mice; conditions: anti-CD3/CD28 activated, 3 days, dose-dependent (0.32-1000 nM)
Excerpt: To identify the top candidates whose effects on GvHD will be further tested in vivo, we next screened the WU derivatives by evaluating their functional inhibitory activity on the expression of CXCR3 in primary murine T cells activated by anti-CD3/CD28 beads. CXCR3 is a chemokine receptor and surrogate marker of IFNGR-JAK1/JAK2 signaling.
Figure 3 Inhibitory effect of WU derivatives on the expression of CXCR3 compared to commercially available JAK inhibitors in primary murine T cells. Primary murine T cells were isolated from B6 mice and treated with WU derivatives or known JAK inhibitors (in the order of doses of each drug from the left: 0, 0.32, 1.6, 8, 40, 200, 1000 nM) in the presence of anti-CD3/CD28 activators. After 3 days, the expression of CXCR3 on (A) CD3, (B) CD4, and (C) CD8 T cells was determined by flow cytometry.
T cells from in vitro primary murine T cell culture, fresh peripheral blood, or whole splenocytes were analyzed according to cell surface and intracellular markers. Surface markers were directly stained with flow antibodies for 20 min at 4 °C. For intracellular staining (FOXP3 and T-bet), cells were fixed and permeabilized after surface staining using appropriate buffers (One-step intracellular nuclear protein staining protocol, eBioscience, San Diego, CA, USA) and stained with flow antibodies. The antibodies used for flow cytometric analyses for mouse cells were as follows: FOXP3, T-BET, and CD183 (eBioscience, San Diego, CA, USA); CD3, H2-Kb, H2-Kd, CD4, B220, CD11b, CD11c, Ly6C, and DEC205 (BioLegend, San Diego, CA); and CD8, CD45.2, CD80, and Ly6G (BD Pharmingen, San Jose, CA, USA). All cells were run on a ZE5 Cell Analyzer (BD Biosciences, Mountain View, CA, USA) or Attune® NxT (Thermofisher Scientific, Waltham, MA, USA) and analyzed with the FlowJo software, version 10.9.0 (FlowJo LLC., Ashland, OR, USA). […]

T-bet = T-bet expression in activated primary murine T cells (flow cytometry); assay type: cell-based, B6 mice; conditions: anti-CD3/CD28 activation beads, 3 days, dose-dependent
Excerpt: WU6 is a derivative of WU4, incorporating a trifluoromethane sulfonamide for WU6 instead of an ethyl sulfonamide for WU4. […]. […] Subsequently, we examined the effect of WU6 on the expression of CXCR3 and T-bet (the master transcription factor of Th1 and cytotoxic T cell differentiation) in primary murine T cells.
Figure 8 Effect of WU6 on the expression of CXCR3 and T-bet in vitro and GvHD in mouse model of allo-HCT. (A–D) Primary T cells were isolated from B6 and treated with WU6 at indicated doses for 3 days in the presence of anti-CD3/CD28 activation beads. After 3 days, the expression of CXCR3 (A,B) and T-bet (C,D) in the CD4 and CD8 was determined by flow cytometry. Survival rate and (E) clinical GvHD scores (F) of mice treated with WU6 after allo-HCT. (G,H) % BM-derived B cells (B220+) and T cells (CD3+) were examined in the peripheral blood on day 27 after allo-HCT. * p < 0.05, ** p < 0.01, and *** p < 0.001. All error bars are represented as mean ± standard deviation.
T cells from in vitro primary murine T cell culture, fresh peripheral blood, or whole splenocytes were analyzed according to cell surface and intracellular markers. […] All cells were run on a ZE5 Cell Analyzer (BD Biosciences, Mountain View, CA, USA) or Attune® NxT (Thermofisher Scientific, Waltham, MA, USA) and analyzed with the FlowJo software, version 10.9.0 (FlowJo LLC., Ashland, OR, USA). […]

JAK1, sequence (P23458 whole entry): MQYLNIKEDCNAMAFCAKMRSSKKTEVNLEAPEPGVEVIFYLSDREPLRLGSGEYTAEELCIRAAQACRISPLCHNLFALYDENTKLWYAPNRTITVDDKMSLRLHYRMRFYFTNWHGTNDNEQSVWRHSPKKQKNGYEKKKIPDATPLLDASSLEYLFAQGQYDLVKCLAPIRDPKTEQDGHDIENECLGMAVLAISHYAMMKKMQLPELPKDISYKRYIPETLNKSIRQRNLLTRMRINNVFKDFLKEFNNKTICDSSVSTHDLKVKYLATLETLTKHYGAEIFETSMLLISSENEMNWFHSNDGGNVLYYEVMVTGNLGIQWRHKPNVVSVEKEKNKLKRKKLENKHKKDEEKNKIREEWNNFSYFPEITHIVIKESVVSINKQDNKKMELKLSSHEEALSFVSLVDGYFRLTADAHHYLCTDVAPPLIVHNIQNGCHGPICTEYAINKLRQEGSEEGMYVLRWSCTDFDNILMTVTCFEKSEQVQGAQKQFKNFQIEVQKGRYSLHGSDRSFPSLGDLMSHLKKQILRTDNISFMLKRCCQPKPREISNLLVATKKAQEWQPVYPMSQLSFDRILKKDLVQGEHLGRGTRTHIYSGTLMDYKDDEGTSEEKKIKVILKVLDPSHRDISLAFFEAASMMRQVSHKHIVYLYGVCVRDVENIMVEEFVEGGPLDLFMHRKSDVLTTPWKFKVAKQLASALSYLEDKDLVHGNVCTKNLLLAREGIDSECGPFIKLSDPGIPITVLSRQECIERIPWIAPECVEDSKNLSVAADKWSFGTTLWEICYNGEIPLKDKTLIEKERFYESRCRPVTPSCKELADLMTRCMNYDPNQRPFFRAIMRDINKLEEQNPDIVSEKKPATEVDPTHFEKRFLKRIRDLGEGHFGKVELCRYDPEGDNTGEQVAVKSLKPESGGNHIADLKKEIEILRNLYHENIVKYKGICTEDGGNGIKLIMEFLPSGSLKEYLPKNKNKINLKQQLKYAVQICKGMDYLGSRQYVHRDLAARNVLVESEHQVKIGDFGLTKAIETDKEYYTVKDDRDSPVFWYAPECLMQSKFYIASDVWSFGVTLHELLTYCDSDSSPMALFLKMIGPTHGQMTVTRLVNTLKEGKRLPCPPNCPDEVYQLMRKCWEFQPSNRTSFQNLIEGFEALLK
JAK2, sequence (O60674 whole entry): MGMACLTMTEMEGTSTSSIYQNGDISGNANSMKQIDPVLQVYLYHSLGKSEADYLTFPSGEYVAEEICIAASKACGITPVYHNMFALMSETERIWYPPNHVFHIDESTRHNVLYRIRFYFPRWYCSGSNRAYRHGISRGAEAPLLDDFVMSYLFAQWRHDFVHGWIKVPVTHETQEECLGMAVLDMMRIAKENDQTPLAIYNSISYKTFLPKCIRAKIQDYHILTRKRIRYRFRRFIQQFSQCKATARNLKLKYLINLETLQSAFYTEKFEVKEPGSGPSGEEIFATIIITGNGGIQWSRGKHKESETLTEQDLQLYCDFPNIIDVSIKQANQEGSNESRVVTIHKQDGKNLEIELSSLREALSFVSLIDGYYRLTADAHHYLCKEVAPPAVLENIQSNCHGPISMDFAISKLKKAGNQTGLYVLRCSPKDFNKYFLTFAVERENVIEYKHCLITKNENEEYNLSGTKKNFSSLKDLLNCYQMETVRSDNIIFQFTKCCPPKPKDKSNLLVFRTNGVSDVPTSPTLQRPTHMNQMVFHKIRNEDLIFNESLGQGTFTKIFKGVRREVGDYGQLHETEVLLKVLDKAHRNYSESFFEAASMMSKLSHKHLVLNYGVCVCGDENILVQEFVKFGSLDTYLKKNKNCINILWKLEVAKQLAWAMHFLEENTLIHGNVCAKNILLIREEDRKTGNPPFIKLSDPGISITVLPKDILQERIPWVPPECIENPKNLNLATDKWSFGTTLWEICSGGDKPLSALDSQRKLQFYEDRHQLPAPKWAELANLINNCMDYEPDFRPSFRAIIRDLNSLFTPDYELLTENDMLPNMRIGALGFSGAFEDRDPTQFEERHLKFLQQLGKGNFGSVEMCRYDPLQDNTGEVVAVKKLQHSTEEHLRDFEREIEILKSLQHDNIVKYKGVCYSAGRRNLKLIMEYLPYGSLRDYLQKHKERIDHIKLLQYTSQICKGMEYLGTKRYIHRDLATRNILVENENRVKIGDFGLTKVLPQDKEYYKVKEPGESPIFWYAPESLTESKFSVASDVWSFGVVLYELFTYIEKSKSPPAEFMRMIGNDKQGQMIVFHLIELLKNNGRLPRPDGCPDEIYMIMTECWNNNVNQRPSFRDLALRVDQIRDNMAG

For `CCS(=O)(=O)NC1CC2(C1)CC(CC#N)(n1cc(-c3ncnc4[nH]ccc34)cn1)C2` (centres unmarked) [WU4], the IC50 (JAK2; IC50 JAK2, ATP at 1 mM) was 2.26 nM, the IC50 (JAK2; IC50 JAK2, ATP at app. Km) was 0.133 nM and the “plasma drug concentration (mouse PK)” value [1] was “comparable PK to BARI throughout all time points”. For the same compound, the “phosphorylation of STATs” value [2] was “inhibit the phosphorylation of STAT1, STAT3, and STAT5”, the IC50 (JAK1; IC50 JAK1, ATP at 1 mM) was 0.52 nM and the IC50 (JAK1; IC50 JAK1, ATP at app. Km) was 0.453 nM. The “CXCR3 expression on T cells” value (CXCR3) was “significant reductions in CXCR3 expression”.

In the case of `N#CCC1(n2cc(-c3ncnc4[nH]ccc34)cn2)CC2(CC(NS(=O)(=O)C(F)(F)F)C2)C1` (centres unmarked) [WU6], the IC50 (JAK2; IC50 JAK2, ATP at 1 mM) is reported as 6.96 nM, the IC50 (JAK2; IC50 JAK2, ATP at app. Km) is reported as 0.347 nM and the “T-bet expression in CD4 and CD8 T cells” value (T-bet) is reported as “significantly downregulated”. For the same compound, the IC50 (JAK1; IC50 JAK1, ATP at 1 mM) was 3.43 nM, the IC50 (JAK1; IC50 JAK1, ATP at app. Km) was 0.6 nM and the “CXCR3 expression on T cells” value (CXCR3) was “significantly downregulated”.

For `N#CCC1(n2cc(-c3ncnc4[nH]ccc34)cn2)CCS(=O)(=O)CC1` [WU8], the IC50 (JAK2; IC50 JAK2, ATP at 1 mM) was 14.9 nM, the IC50 (JAK2; IC50 JAK2, ATP at app. Km) was 0.535 nM and the “plasma drug concentration (mouse PK)” value [1] was “significant increase in plasma drug concentration at 2 h post-dose”. The “phosphorylation of STATs” value [2] was “inhibit the phosphorylation of STAT1, STAT3, and STAT5”, the IC50 (JAK1; IC50 JAK1, ATP at 1 mM) was 7.15 nM and the IC50 (JAK1; IC50 JAK1, ATP at app. Km) was 1.07 nM. For the same compound, the “CXCR3 expression on T cells” value (CXCR3) was “significant reductions in CXCR3 expression”.
